Results as given in patent US4981842A, “Method of treating hormonal dependent mammary tumors in female mammals” (Roussel Uclaf, priority 1979, dated 1991).

Legend:
[1] = tested on: testicular steroidogenesis; experiment: Inhibitory activity on testicular steroidogenesis in a patient with prostate cancer; assay type: in vivo, human; conditions: intranasal 500 μg twice a day
Source text: The results are reported in the graphs of sheet 2 of the Figures.

[2] = tested on: testicular steroidogenesis; experiment: Inhibitory activity against testicular steroidogenesis in men in good health, single intranasal dose; assay type: in vivo; conditions: for seric level of testosterone/steroids on the fourth day after administration: fourth day (until 6th day)
Protocol: The inhibitory activity of [D Ser (tbu)^6 xdes Gly NH2^10 ]LH-RH ethylamide (described in German application Ser. No. 2,438,350) against testicular steroidogensis in men in good health was determined on men in good health aged 30 to 40 years. The said product was administered intranasally at a dose of 500 μg in a few drops of distilled water at 8 A.M. on the third day of the test. For 2 days prior to the treatment and for 6 days after the treatment, samples of blood were taken daily at 8 A.M., 3 P.M. and 10 P.M. On the day of administration of the LH-RH agonist, blood samples were taken at 11 A.M. and 6 P.M.
The seric concentrations of LH and FSH were measured by radioimmuno-logic dosages with double antibodies and the antiboides for measuring LH and FSH were furnished by the National Pituitary Agency of N.I.H. in Bethesda, Md. The seric concentrations of steroids was measured by radioimmuno-logic dosages in which one ml of serum was extracted with ether and the steroids were separated on a LH-20 column before measuring with radioimmuno-logic dosages. The radioimmuno-logic dosage results were determined by a program derived from model II of Rodbard et al [Second Karolinska Symposium on Research Methods in Reproductive Endroerinology, Diczfalusky Editer, Copenhague (1970), pp. 79-103]. The statistical significance was determined by the "multiple level test" of Duncan-Kramer [Kramer, Biometrics, vol. 12 (1956), p. 307]. The results are shown in the graphs on sheet 1 of the Figures filed herewith.

[3] = tested on: ovarian steroidogenesis; experiment: Inhibitory activity on ovarian steroidogenesis in women; assay type: in vivo
Protocol: The inhibitory activity of [D Ser (tbu)^6 xdes Gly NH2^10 ]LH-RH ethylamide on ovarian steroidogenosis in women was determined on 6 women aged 26 to 35 years with normal and regular menstrual cycles and without prior endocrinal or gynecological problems. The study was conducted for 6 consecutive cycles consisting of 2 pretreatment cycles, 2 treatment cycles and 2 post-treatment cycles. Two drops of a solution containing 500 μg of [D Ser (tbu)^6 xdes Gly NH2^10 ] LH-RH ethylamide were deposited on each nostril at 8 A.M. and 5 P.M. of a day between the 4th and 9th day after the peak of LH-day 0. Daily blood samples were taken between 4 and 6 P.M. to measure seric levels of LH, FSH, progesterone and estradiol which were determined by radioimmuno-logictests with double antibodies. The antibodies to measure LH and FSH were furnished by the National Pituitory Agency of N.I.H. of Bethesda, Md.
Estradiol and progesterone were measured with highly specific antibodies developed against 7-(O-carboxymethyl)oxime of estradiol and 12-(O-carboxymethyl)-oxime of progesterone, respectively [3H] 17β-estradiol and ^125 I-progesterone -12-[O-carboxymethyl)-oxime]used as tracers. The serum was extracted with benzene and the steroids were separated with a LH-20 column before the determination. The radioimmunological results were exploited by the program derived from model II of Rodbard and Lewald as in Example 1 and the statistical significance was measured by the multiple level test of Ducan-Kramer of Example 1. The results are shown in the graphs of sheets 3 to 5 of the Figures.

[4] = tested on: prostate and seminal vesicules; experiment: Peptide in association with an antiandrogen: weight of prostate and seminal vesicles in rats; assay type: in vivo, rats of the Sprague-Dawley strain; conditions: 14 days, 100 or 500 μg peptide s.c. plus 5 mg product A twice daily
Protocol: The effect of the administration of [D Ser (tbu)^6 des Gly NH2^10 ] LH-RH ethylamide in association with an antiandrogen was determined on groups of 9 normal rats of the Sprague-Dawley strain weighing about 250 g. The rats received for 14 days a subcutaneous administration at 9 A.M. of D Ser(Tbu)^6 of Gly^10 LH-RH ethylamide at a dose of 20, 100 or 500 μg in physiological serum and at 9 A.M. and 4 P.M. doses of 1 or 5 mg of 5,5-dimethyl-3-[4-nitro-3-trifluoromethyl-phenyl]-2,4-imidazolidinedione (product A) in solution in seasame oil containing 5% of benzyl alcohol. One group of rats received only physiological serum and one group received only product A.
The animals were killed 24 hours after the last injection and the weight of the prostate and seminal vesicules of the rats were determined.

[5] = intranasal 500 μg, 3rd day following administration
[6] = intranasal 500 μg at 8 A.M. and 5 P.M. of one day in luteal phase, typical subject (sheet 3)

**Q.** What does the source list for `CCNC(=O)[C@@H]1CCCN1C(=O)[C@H](CCCNC(=N)N)NC(=O)[C@H](CC(C)C)NC(=O)[C@@H](COC(C)(C)C)NC(=O)[C@H](Cc1ccc(O)cc1)NC(=O)[C@H](CO)NC(=O)[C@H](Cc1c[nH]c2ccccc12)NC(=O)[C@H](Cc1c[nH]cn1)NC(=O)[C@@H]1CCC(=O)N1` [[D Ser (tbu)^6 xdes Gly NH2^10] LH-RH ethylamide]?
**A.** level of androgenic steroids (plasma) [1]: diminution; level of testosterone (plasma) ([1]; two weeks of treatment): stabilized at a very low level; concentration of 17-OH-progesterone relative to initial control values [2, 5]: 40%; concentration of testosterone relative to initial control values [2, 5]: 50%; seric concentration of pregnenolone, 17-OH-pregnenolone, progesterone, 17-OH-progesterone, Δ5-androstene-3β,17β-diol and testosterone on the day of treatment ([2]; intranasal 500 μg, day of treatment): increased; plasmatic levels of LH and FSH ([2]; intranasal 500 μg, men): increase; seric level of testosterone/steroids on the fourth day after administration ([2]; single intranasal dose 500 μg): returned to normal; seric level of testosterone/steroids on the fourth day after administration ([2]; single intranasal dose 500 μg, listed as peptide): return to normal levels; duration of the drop of seric levels of testicular steroids (testosterone and its precursors) ([2]; single intranasal dose 500 μg, human): 3 days; diminution of the level of testosterone ([2]; single intranasal dose 500 μg, human, 3rd day following administration): 50%; reduction of the level of progesterone as compared to the controls ([3]; 12 cycles of treatment (sheet 5)): 46%; progesterone level in cycles of post-treatment, pretreatment cycles as base of 100% ([3]; 12 cycles, 6 women): 99%; progesterone level in cycles of treatment, pretreatment cycles as base of 100% ([3]; 12 cycles, 6 women): 46%; reduction of seric levels of progesterone compared to controls, first cycle of treatment [3, 6]: 13%; reduction of seric levels of progesterone compared to controls, second cycle of treatment [3, 6]: 34%; level of seric progesterone over the 2 cycles of treatment (sheet 4) ([3]; return to normal for the 2 cycles of post-treatment): accelerated diminution; weight of the prostate [4]: Similar, but a little less marked; weight of the seminal vesicules [4]: approached the weight of the seminal vesicules of castrated rats
